Several values for one entry are separate records, joined by “and”; a condition that tells them apart may be missing. Equal entries are not always repeated.
How the values were obtained:
HIV-1 = experiment: Test E (HIV-1 RT), RT activity in supernatant of infected MT-4/H9 cells; format: cell-based; conditions: for inhibition at 0.1 µg/mL / inhibition at 1 µg/mL / inhibition at 10 µg/mL / inhibition at 100 µg/mL: Human immunodeficiency virus 1, H9, Test E
Method: (§1) Tests E, F, G, H (HIV-IRT, HIV-2RT, SIVRT, no virus)
(§2) MT-4/H9-cells are adjusted to 2x10^5 cells/ml medium (RPMI 1640, 5% FCS, penicillin/streptomycin) and seeded into microplates (96 wells/plate) […] cell suspension/well giving 2 x 10^4 cells/well. The compound to be tested is made 10 mg/ml in DMSO = stock solution (stored at -20°C). The compound dissolved in DMSO is diluted 25 times in medium to give 400 mg/ml. Further dilutions to 40 mg/ml and 4 mg/ml are made in microplates.
(§3) 50 µl of the dilutions 400 mg/ml, 40 mg/ml and 4mg/ml are transferred to the "cell-containing" microplate with a multichannel pipette. […]
(§4) Finally 50 µl of virus suspension is added to each well (with a repetitive "Eppendorf multipett"). [Test E-HIV-1; Test F-HIV-2; Test G-SIV; Test H-no virus].
(§5) Each plate has at least four wells with virus but no drug (virus control) and two wells without virus (medium control). The plate is put into a plastic bag to avoid evaporation and incubated for six days in CO2-atmosphere. 10 µl supernatant from each well is transferred with a multichannel pipette into a new microplate to which 40 ml VDB, (50 mM Tris-HCl pH = 7.6, 35 mM KCl, 4 mM DTT, 1 mM EDTA, 1.3% Triton X-100), have been added to each well. The addition of 50 ml RT-reaction mix, (10 ml culture supernatant, 40 ml VDB and 50 ml reaction mixture giving a final concentration of: 100 mM Tris-HCl pH = 7.6, 100 mM KCl, 4 mM MgCl2, 4 mM DTT, 275 mg/ml BSA/ml, 5 mg (rA)n(dT)12-18/ml and 0.3 mM ^3H dTTP (specific activity 18.000 cpm/pmol)) gives a final volume of […]/well. After 60 minutes of incubation the whole assay volume is transferred by use of a cell harvester to a filter mat prewetted with 5% TCA. The filter is washed in 5% TCA and rinsed once in ethanol. After drying the filter mat at 60°C for 30 min. each filter (96/mat) is punched out and put into counting vials 2 ml of scintillation fluid is added and the samples are counted (1 min) or the whole filter mat is put into a plastic bag, 10 ml of scintillation fluid is added and the filter mat is counted in a Beckman Betaplate counter. Percent reduction of RT activity is determined by comparing RT activity for virus control with the RT activity measured for each dilution of the compound.

HIV(II) virus = experiment: Test B (XTT), MT4 cells infected with HIV(II); format: cell-based; conditions: for inhibition at 0.1 µg/mL / inhibition at 1 µg/mL / inhibition at 10 µg/mL / inhibition at 100 µg/mL: Human immunodeficiency virus 1, MT4, Test B
Method: (§6) Tests A, B, C, and D (XTT)
(§7) MT4 cells in a medium of RPMI 1640, 5% FCS, penicillin/streptomycin are adjusted to 2x10^5 cells/ml and seeded into microplates (96 wells/plate) 100 µl cell suspension/well giving 2x10^4 cells/well. The compound to be tested is made into a 10 mg/ml mixture in DMSO and stored at -20°C. The compound in DMSO is diluted with medium containing 10% DMSO in a 10-fold dilution series to give 1 mg/ml, 10 mg/ml, and […] solutions. Further dilutions to 400, 40, 4 and 0.4 mg/ml are made in medium containing microplates. Fifty µl of the 400, 40, and 4 mg/ml are transferred to the cell-containing microplates with a multi-channel pipette (final concentration: 100, 10, and 1 mg/ml). Finally, 50 µl of virus suspension is added to each well (with a repetitive "Eppendorf" multipipett). Each plate has at least six wells with the following: [Test A: HIV virus; Test B: HIV(II) virus; Test C: SIV virus; Test D: No virus]; with no drug (virus control) and six wells without virus (medium control). The plate is put into a plastic bag and incubated for six days in CO2 atmosphere. To each well in the plate is added 50 µl of XTT ((2,3-bis[2-methoxy-4-nitro-5-sulfophenyl]-5-[(phenylamino)carbonyl]-2H-tetrazolium hydroxide), (1 mg/ml 0.01-0.02 mM N-metyl-phenazonium methosulfate). After six hours of incubation in CO2 atmosphere the plates are covered with adhesive plate sealers and gently mixed on a vortex. Optical densities are determined at a wavelength of 450 nm and a reference wavelength of 650 nm. The percent reduction of cytotoxocity caused by the virus infection is calculated as follows: (OD450 compound - OD450 inf cells)/(OD450 uninf cells - OD450 inf cells)x 100 [formula]

HIV virus = experiment: Test A (XTT), MT4 cells infected with HIV; format: cell-based; conditions: for inhibition at 10 µg/mL / inhibition at 0.1 µg/mL / inhibition at 100 µg/mL / inhibition at 1 µg/mL: Human immunodeficiency virus 1, MT4, Test A; for % inhibition: Test A
Method: as §6, §7

MT4 cells = experiment: Test D (XTT), MT4 cells, no virus; format: cell-based; conditions: Homo sapiens
Method: as §6, §7

SIV virus = experiment: Test C (XTT), MT4 cells infected with SIV; format: cell-based; conditions: for inhibition at 0.1 µg/mL / inhibition at 1 µg/mL / inhibition at 10 µg/mL / inhibition at 100 µg/mL: Simian immunodeficiency virus, MT4, Test C; for % inhibition: Test C
Method: as §6, §7

HIV-2 = experiment: Test F (HIV-2 RT), RT activity in supernatant of infected MT-4/H9 cells; format: cell-based; conditions: for inhibition at 0.1 µg/mL / inhibition at 1 µg/mL / inhibition at 10 µg/mL / inhibition at 100 µg/mL: Human immunodeficiency virus 2, H9, Test F; for % inhibition: Test F
Method: as §1, §2, §3, §4, §5

recombinant HIV-RT = recombinant HIV-RT (Human immunodeficiency virus type 1 group M subtype B, UniProt P04585); experiment: Test I (HIVRT (rAdt)), direct inhibition of recombinant HIV-RT; format: biochemical
Method: The compounds were tested for direct inhibitory activity on HIV-RT in a volume of […] recombinant HIV-RT (diluted in virus disruption buffer to give 200.000 cpm).
100 mM Tris-HCl pH 7.6, 100 mM KCl, 4 mM MgCl2, 4 mM DTT, 275 mg/ml BSA, 0.5 mg (rA)n(dT)12-18 and 0.3 mM ^3H- dTTP (specific activity […]). After 60 minutess of incubation 40 ml in duplicate were spotted on paper discs and washed in 5% TCA. After rinsing the paper discs in ethanol they were dried and counted in scintillation fluid.

Row | Compound | inhibition at 0.1 µg/mL (HIV-1; 0.1 µg/ml) [%] | inhibition at 1 µg/mL (HIV-1) [%] | inhibition at 10 µg/mL (HIV-1) [%] | inhibition at 100 µg/mL (HIV-1) [%] | inhibition at 0.1 µg/mL (HIV(II) virus) [%] | inhibition at 1 µg/mL (HIV(II) virus; 1 µg/ml) [%] | inhibition at 10 µg/mL (HIV virus; 10 µg/ml) [%] | inhibition at 1 µg/mL (MT4 cells) [%] | inhibition at 10 µg/mL (MT4 cells) [%] | inhibition at 100 µg/mL (MT4 cells) [%] | inhibition at 1 µg/mL (SIV virus; 1 µg/ml) [%] | inhibition at 10 µg/mL (SIV virus) [%] | inhibition at 100 µg/mL (SIV virus) [%] | inhibition at 0.1 µg/mL (HIV-2) [%] | inhibition at 1 µg/mL (HIV-2; 1 µg/ml) [%] | inhibition at 10 µg/mL (HIV-2; 10 µg/ml) [%] | inhibition at 100 µg/mL (HIV-2; 100 µg/ml) [%] | inhibition at 0.1 µg/mL (recombinant HIV-RT; 0.1 µg/ml) [%] | inhibition at 1 µg/mL (recombinant HIV-RT; 1 µg/ml) [%] | inhibition at 10 µg/mL (recombinant HIV-RT; 10 µg/ml) [%] | other results
1 | FC(F)(F)c1csc(NC(=S)NCCc2ccccc2)n1 | 98 | 97 | 96 | 97 | 21 | 100 | 24 | 46 | 75 | 68 | 11 | 5 | 43 | 56 | 95 | 98 | 96 | 63 | 73 | 73 | inhibition at 10 µg/mL (HIV(II) virus): 38%; inhibition at 100 µg/mL (HIV(II) virus): 19%; % inhibition (HIV virus; 0.1 µg/ml): 62% and 84%; % inhibition (HIV virus; 1 µg/ml): 100% and 75% and 84%; % inhibition (HIV virus; 10 µg/ml): 16% and 31%; inhibition at 0.1 µg/mL (MT4 cells): 0%; inhibition at 0.1 µg/mL (SIV virus; 0.1 µg/ml): 9%; % inhibition (recombinant HIV-RT; 0.1 µg/ml): 68%; % inhibition (recombinant HIV-RT; 1 µg/ml): 75%; % inhibition (recombinant HIV-RT; 10 µg/ml): 75%
2 | Cc1nc(NC(=S)NCCc2ccccc2)sc1C | 1 | 23 | 91 | 94 | 13 | 100 | 85 |  | 0 | 0 | 0 | 1 | 0 | 1 | 92 | 61 | 93 | 34 | 39 | 38 | inhibition at 10 µg/mL (HIV(II) virus): 100%; inhibition at 100 µg/mL (HIV(II) virus): 85%; inhibition at 0.1 µg/mL (HIV virus; 0.1 µg/ml): 7%; inhibition at 100 µg/mL (HIV virus; 100 µg/ml): 99%; % inhibition (HIV virus; 10 µg/ml): 88%; % inhibition (HIV virus; 100 µg/ml): 100%
3 | N#Cc1csc(NC(=S)NCCc2ccccc2)n1 | 99 | 98 | 98 | 98 | 74 | 90 | 0 | 53 | 70 | 93 | 5 | 2 | 0 | 67 | 91 | 94 | 96 | 72 | 93 | 94 | inhibition at 10 µg/mL (HIV(II) virus): 0%; inhibition at 100 µg/mL (HIV(II) virus): 0%; inhibition at 0.1 µg/mL (HIV virus; 0.1 µg/ml): 84%; inhibition at 1 µg/mL (HIV virus; 1 µg/ml): 51%; inhibition at 100 µg/mL (HIV virus; 100 µg/ml): 0%; % inhibition (HIV virus; 1 µg/ml): 63%; inhibition at 0.1 µg/mL (MT4 cells): 0%; inhibition at 0.1 µg/mL (SIV virus; 0.1 µg/ml): 11%; % inhibition (recombinant HIV-RT; 0.1 µg/ml): 73%; % inhibition (recombinant HIV-RT; 1 µg/ml): 95%; % inhibition (recombinant HIV-RT; 10 µg/ml): 95%
4 | S=C(NCCc1ccccc1)Nc1nnc[nH]1 |  |  |  |  |  |  | 27 | 33 | 33 | 0 | 5 | 8 | 15 |  |  |  |  | 12 | 14 | 14 | inhibition at 1 µg/mL (HIV virus; 1 µg/ml): 11%; inhibition at 100 µg/mL (HIV virus; 100 µg/ml): 45%; inhibition at 0.1 µg/mL (MT4 cells): 15%
5 | S=C(NCCc1ccccc1)Nc1nc2ccccc2s1 | 1 | 77 | 96 | 95 | 17 | 99 | 100 | 32 | 27 | 23 | 0 | 1 | 8 | 1 | 87 | 84 | 96 | 39 | 36 | 40 | inhibition at 10 µg/mL (HIV(II) virus): 100%; inhibition at 100 µg/mL (HIV(II) virus): 50%; inhibition at 0.1 µg/mL (HIV virus; 0.1 µg/ml): 0%; inhibition at 1 µg/mL (HIV virus; 1 µg/ml): 63%; % inhibition (HIV virus; 1 µg/ml): 53%; % inhibition (HIV virus; 10 µg/ml): 99%
6 | S=C(NCCc1ccccc1)Nc1nccs1 [the 1st table, row 1] |  | 99 | 99 | 99 |  |  |  | 18 | 33 | 45 |  |  |  | 43 | 75 | 57 | 95 |  |  |  | % inhibition (HIV-1; Test E, 0.1 µg/ml): 10% and 1%; % inhibition (HIV(II) virus; Test B, 1 µg/ml): 0%; inhibition at 100 µg/mL (HIV virus; 100 µg/ml): 48%; % inhibition (HIV virus; 0.1 µg/ml): 4%; % inhibition (HIV virus; 10 µg/ml): 99% and 100% and 70% and 98%; % inhibition (HIV virus; 100 µg/ml): 58% and 64%; inhibition at 0.1 µg/mL (MT4 cells): 31%; % inhibition (SIV virus; 0.1 µg/ml): 0% and 1%; % inhibition (SIV virus; 1 µg/ml): 0% and 8% and 2%; % inhibition (HIV-2; 1 µg/ml): 79%; % inhibition (HIV-2; 10 µg/ml): 76%; % inhibition (HIV-2; 100 µg/ml): 86%
